Experimental data published in patent publication US11753446B2, “Beta-hairpin peptidomimetics” (POLYPHOR AG, priority 2014, dated 2023).
Where a SMILES comes first, the peptide text is derived from it. Bridges are numbered along the chain shown (N, C = ends). [ ]: non-standard residue; d: D form. Tle = CC(C)(C)[C@H](N)C(=O)O; dDab = NCC[C@@H](N)C(=O)O; Orn = NCCC[C@H](N)C(=O)O; Dab = NCC[C@H](N)C(=O)O

Assays:
[1] = test system: human red blood cells (hRBC); assay: Hemolysis: hemolytic activity at 100 μg/mL, 1 h at 37° C.; conditions: red cells of human, 1 h, 100
How it was run: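 Peptides at 100 μg/mL incubated with washed 20% (v/v) human erythrocytes (~0.9×10^9 cells/mL) for 1 h at 37 °C with shaking. Released hemoglobin read at OD 540 nm in supernatant; 0% and 100% lysis from PBS/0.001% acetic acid and 2.5% Triton X-100.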

[2] = test system: Escherichia coli ATCC 25922; assay type: cell-based; conditions: ATCC 25922
How it was run: (§1)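 Peptide MICs were determined by NCCLS broth microdilution in cation-adjusted Mueller-Hinton II broth. Inoculum was about 10^6 CFU/mL, matched to 0.5 McFarland, with peptides in two-fold serial dilutions. The broth contained Polysorbate 80 at 0.002% final concentration.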

[3] = test system: Acinetobacter baumannii DSM 30008; assay type: cell-based; conditions: DSM 30008
How it was run: as §1

[4] = test system: Klebsiella pneumoniae ATCC 13883; assay type: cell-based; conditions: ATCC 13883
How it was run: as §1

SMILES	Hemolysis at 100 μg/mL [1]	Escherichia coli ATCC 25922 MIC [2]	Acinetobacter baumannii DSM 30008 MIC [3]	Klebsiella pneumoniae ATCC 13883 MIC [4]
CC[C@H](C)[C@@H]1NC(=O)[C@H](Cc2ccc(O)cc2)NC(=O)[C@H]2CCCN2C(=O)[C@H](CO)NC(=O)[C@H](C)NC(=O)[C@H](C(C)(C)C)NC(=O)[C@H](CCN)NC(=O)[C@H](Cc2c[nH]c3ccccc23)NC(=O)[C@H](CCN)NC(=O)[C@@H](CCN)NC(=O)[C@H](CCCN)NC(=O)[C@H](CCN)NC(=O)[C@H](Cc2ccc(O)cc2)NC(=O)[C@H]([C@@H](C)O)NC1=O [Example 47, cyclo(-Ile-Thr-Tyr-Dab-Orn-^DDab-Dab-Trp-Dab-tBuGly-Ala-Ser-^DPro-Tyr-)] (HELM PEPTIDE1{A.S.[dP].Y.I.T.Y.[Dab].[Orn].[NCC[C@@H](N[*:1])C(=O)[*:2]].[Dab].W.[Dab].[CC(C)(C)[C@H](N[*:1])C(=O)[*:2]]}$PEPTIDE1,PEPTIDE1,1:R1-14:R2$$$V2.0)	0%	1 µg/mL	4 µg/mL	1 µg/mL
CC(C)C[C@@H]1NC(=O)[C@@H]2CCCN2C(=O)[C@@H](CCN)NC(=O)[C@H](CO)NC(=O)[C@H](C(C)C)NC(=O)[C@H](C(C)(C)C)NC(=O)[C@@H]2CC(=O)NCC[C@H](NC(=O)[C@H](Cc3ccc(O)cc3)NC(=O)[C@H](Cc3ccc(O)cc3)NC1=O)C(=O)N[C@@H](CCCN)C(=O)N[C@H](CCN)C(=O)N[C@@H](CCN)C(=O)N[C@@H](Cc1c[nH]c3ccccc13)C(=O)N2 [Example 41, cyclo(-Leu-Tyr-Tyr-Dab-Orn-^DDab-Dab-Trp-Asp-tBuGly-Val-Ser-^DDab-Pro-)] (cyclo(D[Tle]VS[dDab]PLYY[Dab][Orn][dDab][Dab]W); lactam 1-10)	2%	2 µg/mL	2 µg/mL	1 µg/mL
CC(C)C[C@@H]1NC(=O)[C@H](CCCNC(=N)N)NC(=O)[C@@H](C)NC(=O)[C@H](C(C)C)NC(=O)[C@@H]2CSSC[C@H](NC1=O)C(=O)N[C@@H](Cc1ccc(O)cc1)C(=O)N[C@@H](CCN)C(=O)N[C@@H](CCCN)C(=O)N[C@H](CCN)C(=O)N[C@@H](CCN)C(=O)N[C@@H](Cc1c[nH]c3ccccc13)C(=O)N[C@@H](CC(N)=O)C(=O)N[C@@H](Cc1ccc(O)cc1)C(=O)N2 [Example 73, cyclo(-Leu-Cys-Tyr-Dab-Orn-^DDab-Dab-Trp-Asn-Tyr-Cys-Val-^DAla-Arg-)] (HELM PEPTIDE1{C.V.[dA].R.L.C.Y.[Dab].[Orn].[NCC[C@@H](N[*:1])C(=O)[*:2]].[Dab].W.N.Y}$PEPTIDE1,PEPTIDE1,1:R3-6:R3|PEPTIDE1,PEPTIDE1,1:R1-14:R2$$$V2.0)	1%	0.75 µg/mL	1.5 µg/mL	1 µg/mL
CC(C)C[C@@H]1NC(=O)[C@H](CCCNC(=N)N)NC(=O)[C@@H](CCN)NC(=O)[C@H](CC(C)C)NC(=O)[C@@H]2CSSC[C@H](NC1=O)C(=O)N[C@@H](Cc1ccc(O)cc1)C(=O)N[C@@H](CC(N)=O)C(=O)N[C@@H](CCCN)C(=O)N[C@H](CCN)C(=O)N[C@@H](CCN)C(=O)N[C@@H](Cc1c[nH]c3ccccc13)C(=O)N[C@@H](CO)C(=O)N[C@@H](Cc1ccc(O)cc1)C(=O)N2 [Example 63, cyclo(-Leu-Cys-Tyr-Asn-Orn-^DDab-Dab-Trp-Ser-Tyr-Cys-Leu-^DDab-Arg-)] (HELM PEPTIDE1{C.L.[NCC[C@@H](N[*:1])C(=O)[*:2]].R.L.C.Y.N.[Orn].[NCC[C@@H](N[*:1])C(=O)[*:2]].[Dab].W.S.Y}$PEPTIDE1,PEPTIDE1,1:R3-6:R3|PEPTIDE1,PEPTIDE1,1:R1-14:R2$$$V2.0)	3%	1 µg/mL	0.625 µg/mL	0.75 µg/mL
CC(C)C[C@@H]1NC(=O)[C@H](CCCNC(=N)N)NC(=O)[C@@H](CCN)NC(=O)[C@H](C(C)C)NC(=O)[C@H](C)NC(=O)[C@H](C(C)C)NC(=O)[C@@H]2CSSC[C@H](NC(=O)[C@H](Cc3ccc(O)cc3)NC(=O)[C@H](CO)NC1=O)C(=O)N[C@@H](CCCN)C(=O)NCC(=O)N[C@@H](CCN)C(=O)N[C@@H](Cc1c[nH]c3ccccc13)C(=O)N2 [Example 40, cyclo(-Leu-Ser-Tyr-Cys-Orn-Gly-Dab-Trp-Cys-Val-Ala-Val-^DDab-Arg-)] (HELM PEPTIDE1{A.V.[NCC[C@@H](N[*:1])C(=O)[*:2]].R.L.S.Y.C.[Orn].G.[Dab].W.C.V}$PEPTIDE1,PEPTIDE1,8:R3-13:R3|PEPTIDE1,PEPTIDE1,1:R1-14:R2$$$V2.0)	4%	4 µg/mL	4 µg/mL	2 µg/mL
CC(C)C[C@@H]1NC(=O)[C@@H]2CSSC[C@H](NC(=O)[C@H](C(C)C)NC(=O)[C@H](CCCNC(=N)N)NC(=O)[C@@H](CCN)NC1=O)C(=O)N[C@@H](Cc1ccc(O)cc1)C(=O)N[C@@H](CC(N)=O)C(=O)N[C@@H](CCCN)C(=O)N[C@H](CCN)C(=O)N[C@@H](CCN)C(=O)N[C@@H](Cc1c[nH]c3ccccc13)C(=O)N[C@@H](CO)C(=O)N[C@@H](Cc1ccc(O)cc1)C(=O)N2 [Example 69, cyclo(-Val-Cys-Tyr-Asn-Orn-^DDab-Dab-Trp-Ser-Tyr-Cys-Leu-^DDab-Arg-)] (HELM PEPTIDE1{C.L.[NCC[C@@H](N[*:1])C(=O)[*:2]].R.V.C.Y.N.[Orn].[NCC[C@@H](N[*:1])C(=O)[*:2]].[Dab].W.S.Y}$PEPTIDE1,PEPTIDE1,1:R3-6:R3|PEPTIDE1,PEPTIDE1,1:R1-14:R2$$$V2.0)	1%	1 µg/mL	1 µg/mL	1 µg/mL
CC(C)C[C@@H]1NC(=O)[C@H](CCCNC(=N)N)NC(=O)[C@@H](CCN)NC(=O)[C@H](C)NC(=O)[C@@H]2CSSC[C@H](NC1=O)C(=O)N[C@@H](Cc1ccc(O)cc1)C(=O)N[C@@H](CC(N)=O)C(=O)N[C@@H](CCCN)C(=O)N[C@H](CCN)C(=O)N[C@@H](CCN)C(=O)N[C@@H](Cc1c[nH]c3ccccc13)C(=O)N[C@@H](CO)C(=O)N[C@@H](Cc1ccc(O)cc1)C(=O)N2 [Example 71, cyclo(-Leu-Cys-Tyr-Asn-Orn-^DDab-Dab-Trp-Ser-Tyr-Cys-Ala-^DDab-Arg-)] (HELM PEPTIDE1{A.[NCC[C@@H](N[*:1])C(=O)[*:2]].R.L.C.Y.N.[Orn].[NCC[C@@H](N[*:1])C(=O)[*:2]].[Dab].W.S.Y.C}$PEPTIDE1,PEPTIDE1,5:R3-14:R3|PEPTIDE1,PEPTIDE1,1:R1-14:R2$$$V2.0)	1%	1.5 µg/mL	1.5 µg/mL	1 µg/mL
CC(C)C[C@@H]1NC(=O)[C@H](CCN)NC(=O)[C@@H](CCN)NC(=O)[C@H](CO)NC(=O)[C@H](C)NC(=O)[C@H](Cc2ccc(O)cc2)NC(=O)[C@@H]2CSSC[C@H](NC(=O)[C@H](Cc3ccc(O)cc3)NC(=O)[C@H](CO)NC1=O)C(=O)N[C@@H](CCCN)C(=O)N[C@H](CCN)C(=O)N[C@@H](CCN)C(=O)N[C@@H](Cc1c[nH]c3ccccc13)C(=O)N2 [Example 38, cyclo(-Leu-Ser-Tyr-Cys-Orn-^DDab-Dab-Trp-Cys-Tyr-Ala-Ser-^DDab-Dab-)] (HELM PEPTIDE1{A.S.[NCC[C@@H](N[*:1])C(=O)[*:2]].[Dab].L.S.Y.C.[Orn].[NCC[C@@H](N[*:1])C(=O)[*:2]].[Dab].W.C.Y}$PEPTIDE1,PEPTIDE1,8:R3-13:R3|PEPTIDE1,PEPTIDE1,1:R1-14:R2$$$V2.0)	1%	2 µg/mL	3 µg/mL	2 µg/mL
CC(C)C[C@@H]1NC(=O)[C@H](CCCNC(=N)N)NC(=O)[C@H]2CCCN2C(=O)[C@H](C(C)C)NC(=O)[C@@H]2CSSC[C@H](NC1=O)C(=O)N[C@@H](Cc1ccc(O)cc1)C(=O)N[C@@H](C)C(=O)N[C@@H](CCCN)C(=O)N[C@H](CCN)C(=O)N[C@@H](CCN)C(=O)N[C@@H](Cc1c[nH]c3ccccc13)C(=O)N[C@@H](C)C(=O)N[C@@H](C(C)C)C(=O)N2 [Example 3, cyclo(-Leu-Cys-Tyr-Ala-Orn-^DDab-Dab-Trp-Ala-Val-Cys-Val-^DPro-Arg-)] (HELM PEPTIDE1{A.[Orn].[NCC[C@@H](N[*:1])C(=O)[*:2]].[Dab].W.A.V.C.V.[dP].R.L.C.Y}$PEPTIDE1,PEPTIDE1,8:R3-13:R3|PEPTIDE1,PEPTIDE1,1:R1-14:R2$$$V2.0)	4%	2 µg/mL	1 µg/mL	1 µg/mL
CC(C)C[C@@H]1NC(=O)[C@H](CCN)NC(=O)[C@H]2CCCN2C(=O)[C@H](C(C)C)NC(=O)[C@H]([C@@H](C)O)NC(=O)[C@H](C(C)C)NC(=O)[C@@H]2CSSC[C@H](NC(=O)[C@H](Cc3ccc(O)cc3)NC(=O)[C@H]([C@@H](C)O)NC1=O)C(=O)N[C@@H](CCN)C(=O)N[C@H](CCN)C(=O)N[C@@H](CCN)C(=O)N[C@@H](Cc1c[nH]c3ccccc13)C(=O)N2 [Example 37, cyclo(-Leu-Thr-Tyr-Cys-Dab-^DDab-Dab-Trp-Cys-Val-Thr-Val-^DPro-Dab-)] (HELM PEPTIDE1{C.[Dab].[NCC[C@@H](N[*:1])C(=O)[*:2]].[Dab].W.C.V.T.V.[dP].[Dab].L.T.Y}$PEPTIDE1,PEPTIDE1,1:R3-6:R3|PEPTIDE1,PEPTIDE1,1:R1-14:R2$$$V2.0)	2%	4 µg/mL	2 µg/mL	2 µg/mL
